Test system: southern crabgrass
Assay: Test Example 5: herbicidal effect by foliage application, plastic box (Table 20, symbol F)
Assay type: in vivo, southern crabgrass (Digitaria ciliaris)
Conditions: foliage application, 320 g/ha, evaluated three weeks after application
Method in brief: (§1)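 Foliar spray test: emulsion formulation diluted in water to a set application rate, sprayed onto 14-day-old plants raised in diluvial soil at 25° C to 30° C under glass. Both herbicidal effect and crop effect rated visually three weeks later.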

SMILES | herbicidal effect on F: southern crabgrass (criteria 0-5)
CCCC(=O)Oc1c(C)nn(C)c(=O)c1-c1c(-c2cccc(F)c2)sc2ccc(F)cc12 [2-202] | 3 (Herbicidal rate of 40% or more and less than 70%)
Cc1nn(C)c(=O)c(-c2c(-c3ccc(OC4CC4)cc3)sc3ccc(F)cc23)c1O [2-217] | 3 (Herbicidal rate of 40% or more and less than 70%)

Test system: blackgrass
Assay: Test Example 4: herbicidal effect by soil treatment (Table 19, symbol J)
Assay type: in vivo, blackgrass (Alopecurus myosuroides)
Conditions: amount of applied herbicide 320 g/ha
Method in brief: (§2)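 Herbicidal effect was rated 3 weeks after treatment, using the scoring criteria of an earlier test. The compound, formulated as an emulsion and diluted in water to a set herbicide amount, had been sprayed uniformly on soil over freshly sown seeds. Growth took place in a greenhouse at 25° C. to 30° C.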

SMILES | J: blackgrass, herbicidal effect rating
CCCC(=O)Oc1c(C)nn(C)c(=O)c1-c1c(-c2cccc(F)c2)sc2ccc(F)cc12 [2-202] | 0 (Herbicidal rate of 5% or less (almost no effect))
Cc1nn(C)c(=O)c(-c2c(-c3ccc(OC4CC4)cc3)sc3ccc(F)cc23)c1O [2-217] | 0 (Herbicidal rate of 5% or less (almost no effect))

Test system: Japanese bulrush
Assay: Test Example 2: herbicidal activity, application during weed generation under submerged conditions (Table 17, symbol B)
Assay type: in vivo, Japanese bulrush (Schoenoplectus juncoides)
Conditions: AAH 320 g/ha; application during weed generation, submerged conditions
Method in brief: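 Steps: fill Wagner pots with alluvial soil; add water to give 4 cm depth; sow the species mixed; grow under glass at 25–30° C.; at 1–2 leaves apply water-diluted emulsion formulation to the water surface at a fixed herbicide amount; score after 3 weeks.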

SMILES | herbicidal effect rating, B: Japanese bulrush
CCCC(=O)Oc1c(C)nn(C)c(=O)c1-c1c(-c2cccc(F)c2)sc2ccc(F)cc12 [2-202] | 3 (Herbicidal rate of 40% or more and less than 70%)
Cc1nn(C)c(=O)c(-c2c(-c3ccc(OC4CC4)cc3)sc3ccc(F)cc23)c1O [2-217] | 3 (Herbicidal rate of 40% or more and less than 70%)

Test system: oval-leafed pondweed
Assay: Test Example 1: herbicidal activity, application before weed generation under submerged conditions (Table 16, symbol C)
Assay type: in vivo, oval-leafed pondweed (Monochoria vaginalis)
Conditions: 320 g/ha applied herbicide
Method in brief: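 Submerged Wagner pots (alluvial soil, 4 cm water) sown with weed seeds and planted with 2.5-leaf rice seedlings; emulsifiable concentrate diluted in water applied to water surface on sowing day. Held in greenhouse at 25-30 °C; injury scored 0-5 by herbicidal rate after three weeks.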

SMILES | Herbicidal effect on C: oval-leafed pondweed (grade 0-5)
CCCC(=O)Oc1c(C)nn(C)c(=O)c1-c1c(-c2cccc(F)c2)sc2ccc(F)cc12 [2-202] | 0 (Herbicidal rate of 5% or less (almost no effect))
Cc1nn(C)c(=O)c(-c2c(-c3ccc(OC4CC4)cc3)sc3ccc(F)cc23)c1O [2-217] | 4 (Herbicidal rate of 70% or more and less than 90%)

Test system: green foxtail
Assay: Test Example 4: herbicidal effect by soil treatment (Table 19, symbol G)
Assay type: in vivo, green foxtail (Setaria viridis)
Conditions: amount of applied herbicide 320 g/ha
Method in brief: as §2

SMILES | G: green foxtail, herbicidal effect rating
CCCC(=O)Oc1c(C)nn(C)c(=O)c1-c1c(-c2cccc(F)c2)sc2ccc(F)cc12 [2-202] | 3 (Herbicidal rate of 40% or more and less than 70%)
Cc1nn(C)c(=O)c(-c2c(-c3ccc(OC4CC4)cc3)sc3ccc(F)cc23)c1O [2-217] | 1 (Herbicidal rate of 5% or more and less than 20%)

Test system: velvetleaf
Assay: Test Example 4: herbicidal effect by soil treatment (Table 19, symbol M)
Assay type: in vivo, velvetleaf (Abutilon theophrasti)
Conditions: amount of applied herbicide 320 g/ha
Method in brief: as §2

SMILES | M: velvetleaf, herbicidal effect rating
CCCC(=O)Oc1c(C)nn(C)c(=O)c1-c1c(-c2cccc(F)c2)sc2ccc(F)cc12 [2-202] | 0 (Herbicidal rate of 5% or less (almost no effect))
Cc1nn(C)c(=O)c(-c2c(-c3ccc(OC4CC4)cc3)sc3ccc(F)cc23)c1O [2-217] | 1 (Herbicidal rate of 5% or more and less than 20%)

Test system: wild oat
Assay: Test Example 4: herbicidal effect by soil treatment (Table 19, symbol I)
Assay type: in vivo, wild oat (Avena fatua)
Conditions: amount of applied herbicide 320 g/ha
Method in brief: as §2

SMILES | I: wild oat, herbicidal effect rating
CCCC(=O)Oc1c(C)nn(C)c(=O)c1-c1c(-c2cccc(F)c2)sc2ccc(F)cc12 [2-202] | 0 (Herbicidal rate of 5% or less (almost no effect))
Cc1nn(C)c(=O)c(-c2c(-c3ccc(OC4CC4)cc3)sc3ccc(F)cc23)c1O [2-217] | 0 (Herbicidal rate of 5% or less (almost no effect))

Test system: chickweed
Assay: Test Example 5: herbicidal effect by foliage application, plastic box (Table 20, symbol P)
Assay type: in vivo, common chickweed (Stellaria media)
Conditions: foliage application, 320 g/ha, evaluated three weeks after application
Method in brief: as §1

SMILES | herbicidal effect on P: chickweed (criteria 0-5)
CCCC(=O)Oc1c(C)nn(C)c(=O)c1-c1c(-c2cccc(F)c2)sc2ccc(F)cc12 [2-202] | 5 (Herbicidal rate of 90% or more (almost completely withered))
Cc1nn(C)c(=O)c(-c2c(-c3ccc(OC4CC4)cc3)sc3ccc(F)cc23)c1O [2-217] | 5 (Herbicidal rate of 90% or more (almost completely withered))

Test system: barnyard grass
Assay: Test Example 4: herbicidal effect by soil treatment (Table 19, symbol H)
Assay type: in vivo, barnyard grass (Echinochloa crus-galli)
Conditions: amount of applied herbicide 320 g/ha
Method in brief: as §2

SMILES | H: barnyard grass, herbicidal effect rating
CCCC(=O)Oc1c(C)nn(C)c(=O)c1-c1c(-c2cccc(F)c2)sc2ccc(F)cc12 [2-202] | 4 (Herbicidal rate of 70% or more and less than 90%)
Cc1nn(C)c(=O)c(-c2c(-c3ccc(OC4CC4)cc3)sc3ccc(F)cc23)c1O [2-217] | 5 (Herbicidal rate of 90% or more (almost completely withered))

Test system: lambsquarters
Assay: Test Example 5: herbicidal effect by foliage application, plastic box (Table 20, symbol O)
Assay type: in vivo, lambsquarters (Chenopodium album)
Conditions: foliage application, 320 g/ha, evaluated three weeks after application
Method in brief: as §1

SMILES | herbicidal effect on O: lambsquarters (criteria 0-5)
CCCC(=O)Oc1c(C)nn(C)c(=O)c1-c1c(-c2cccc(F)c2)sc2ccc(F)cc12 [2-202] | 4 (Herbicidal rate of 70% or more and less than 90%)
Cc1nn(C)c(=O)c(-c2c(-c3ccc(OC4CC4)cc3)sc3ccc(F)cc23)c1O [2-217] | 4 (Herbicidal rate of 70% or more and less than 90%)

Test system: chickweed
Assay: Test Example 4: herbicidal effect by soil treatment (Table 19, symbol P)
Assay type: in vivo, common chickweed (Stellaria media)
Conditions: amount of applied herbicide 320 g/ha
Method in brief: as §2

SMILES | P: chickweed, herbicidal effect rating
CCCC(=O)Oc1c(C)nn(C)c(=O)c1-c1c(-c2cccc(F)c2)sc2ccc(F)cc12 [2-202] | 4 (Herbicidal rate of 70% or more and less than 90%)
Cc1nn(C)c(=O)c(-c2c(-c3ccc(OC4CC4)cc3)sc3ccc(F)cc23)c1O [2-217] | 4 (Herbicidal rate of 70% or more and less than 90%)

Test system: southern crabgrass
Assay: Test Example 4: herbicidal effect by soil treatment (Table 19, symbol F)
Assay type: in vivo, southern crabgrass (Digitaria ciliaris)
Conditions: amount of applied herbicide 320 g/ha
Method in brief: as §2

SMILES | F: southern crabgrass, herbicidal effect rating
CCCC(=O)Oc1c(C)nn(C)c(=O)c1-c1c(-c2cccc(F)c2)sc2ccc(F)cc12 [2-202] | 2 (Herbicidal rate of 20% or more and less than 40%)
Cc1nn(C)c(=O)c(-c2c(-c3ccc(OC4CC4)cc3)sc3ccc(F)cc23)c1O [2-217] | 4 (Herbicidal rate of 70% or more and less than 90%)

Test system: persian speedwell
Assay: Test Example 5: herbicidal effect by foliage application, plastic box (Table 20, symbol R)
Assay type: in vivo, Persian speedwell (Veronica persica)
Conditions: foliage application, 320 g/ha, evaluated three weeks after application
Method in brief: as §1

SMILES | herbicidal effect on R: persian speedwell (criteria 0-5)
CCCC(=O)Oc1c(C)nn(C)c(=O)c1-c1c(-c2cccc(F)c2)sc2ccc(F)cc12 [2-202] | 4 (Herbicidal rate of 70% or more and less than 90%)
Cc1nn(C)c(=O)c(-c2c(-c3ccc(OC4CC4)cc3)sc3ccc(F)cc23)c1O [2-217] | 5 (Herbicidal rate of 90% or more (almost completely withered))

Test system: velvetleaf
Assay: Test Example 5: herbicidal effect by foliage application, plastic box (Table 20, symbol M)
Assay type: in vivo, velvetleaf (Abutilon theophrasti)
Conditions: foliage application, 320 g/ha, evaluated three weeks after application
Method in brief: as §1

SMILES | herbicidal effect on M: velvetleaf (criteria 0-5)
CCCC(=O)Oc1c(C)nn(C)c(=O)c1-c1c(-c2cccc(F)c2)sc2ccc(F)cc12 [2-202] | 5 (Herbicidal rate of 90% or more (almost completely withered))
Cc1nn(C)c(=O)c(-c2c(-c3ccc(OC4CC4)cc3)sc3ccc(F)cc23)c1O [2-217] | 5 (Herbicidal rate of 90% or more (almost completely withered))

Test system: lambsquarters
Assay: Test Example 4: herbicidal effect by soil treatment (Table 19, symbol O)
Assay type: in vivo, lambsquarters (Chenopodium album)
Conditions: amount of applied herbicide 320 g/ha
Method in brief: as §2

SMILES | O: lambsquarters, herbicidal effect rating
CCCC(=O)Oc1c(C)nn(C)c(=O)c1-c1c(-c2cccc(F)c2)sc2ccc(F)cc12 [2-202] | 5 (Herbicidal rate of 90% or more (almost completely withered))
Cc1nn(C)c(=O)c(-c2c(-c3ccc(OC4CC4)cc3)sc3ccc(F)cc23)c1O [2-217] | 4 (Herbicidal rate of 70% or more and less than 90%)

Test system: persian speedwell
Assay: Test Example 4: herbicidal effect by soil treatment (Table 19, symbol R)
Assay type: in vivo, Persian speedwell (Veronica persica)
Conditions: amount of applied herbicide 320 g/ha
Method in brief: as §2

SMILES | R: persian speedwell, herbicidal effect rating
CCCC(=O)Oc1c(C)nn(C)c(=O)c1-c1c(-c2cccc(F)c2)sc2ccc(F)cc12 [2-202] | 4 (Herbicidal rate of 70% or more and less than 90%)
Cc1nn(C)c(=O)c(-c2c(-c3ccc(OC4CC4)cc3)sc3ccc(F)cc23)c1O [2-217] | 4 (Herbicidal rate of 70% or more and less than 90%)

Test system: windgrass
Assay: Test Example 5: herbicidal effect by foliage application, plastic box (Table 20, symbol L)
Assay type: in vivo, windgrass (Apera spica-venti)
Conditions: foliage application, 320 g/ha, evaluated three weeks after application
Method in brief: as §1

SMILES | herbicidal effect on L: windgrass (criteria 0-5)
CCCC(=O)Oc1c(C)nn(C)c(=O)c1-c1c(-c2cccc(F)c2)sc2ccc(F)cc12 [2-202] | 2 (Herbicidal rate of 20% or more and less than 40%)
Cc1nn(C)c(=O)c(-c2c(-c3ccc(OC4CC4)cc3)sc3ccc(F)cc23)c1O [2-217] | 5 (Herbicidal rate of 90% or more (almost completely withered))
